# Ends that are not written are not given here.
# Legend:
# [1] = tested on: microorganisms; experiment: Peptide activities: binding, antimicrobial, growth or phenotype altering (Table 8)
# Text: In certain embodiments, peptides described herein can have multiple activities. Thus for example, a peptide can have both binding/targeting activity and antimicrobial activity. Such peptides can be used, e.g., in a chimeric construct, for any or all of these properties. Thus, for example, a peptide designated “B” in Table 8 can be used as a targeting peptide. If it is also designated G or M it can also be used for antimicrobial activity.
# [2] = tested on: microorganisms; experiment: Morphology, biofilm and growth disruption by peptides (Table 5); type: cell-based; set-up: key: A: Peptide aggregates; B: Less hyphal formation; Clumps; Diffuse clumps and small polyps; F: Diffuse growth; H: Thin; I: Growth inhibition; Microcolony formation; Rippled; Small polyps; Thick; W: Halo formation on top, microlonies on bottom
# Text: In certain embodiments peptides that induce alterations in phenotype or other biological activities can also be used as antimicrobial effector moieties.
Substance,Activities [1],"Organism, effect (morphology, biofilm and growth disruption) ([2]; MRSA)","Organism, effect (morphology, biofilm and growth disruption) ([2]; S. epidermidis)","Organism, effect (morphology, biofilm and growth disruption) ([2]; S. pneumoniae)","Organism, effect (morphology, biofilm and growth disruption) ([2]; E. coli)",other results
PF-022 (MINELKNKNSGIMNNYVVTKESKL; Peptide with targeting and/or antimicrobial activity),G B,,,,,"Organism, effect ([2]; C. jeikeium): C. jeikeium (A); Organism, effect ([2]; M. luteus): M. luteus (A); Organism, effect ([2]; MRSA): MRSA (R); Organism, effect ([2]; S. epidermidis): S. epidermidis (D)"
PF-068 (SHLINNFGLSVINPSTPICLNFSPVFNLLTVYGITCN; Peptide with targeting and/or antimicrobial activity),G B,,,,,"Organism, effect ([2]; B. subtilis): B. subtilis (A); Organism, effect ([2]; C. jeikeium): C. jeikeium (R); Organism, effect ([2]; C. jejuni): C. jejuni (D); Organism, effect ([2]; E. coli): E. coli (A); Organism, effect ([2]; E. faecalis): E. faecalis (A); Organism, effect ([2]; M. luteus): M. luteus (D); Organism, effect ([2]; MRSA): MRSA (M); Organism, effect ([2]; S. epidermidis): S. epidermidis (M); Organism, effect ([2]; S. pneumoniae): S. pneumoniae (D)"
PF-548 (ARPIADLIHFNSTTVTASGDVYYGPG; Peptide with targeting and/or antimicrobial activity),G B,MRSA (M),S. epidermidis (M),S. pneumoniae (D),,"Organism, effect (morphology, biofilm and growth disruption) ([2]; B. subtilis): B. subtilis (C); Organism, effect (morphology, biofilm and growth disruption) ([2]; C. jeikeium): C. jeikeium (R); Organism, effect (morphology, biofilm and growth disruption) ([2]; C. jejuni): C. jejuni (D); Organism, effect (morphology, biofilm and growth disruption) ([2]; M. luteus): M. luteus (A)"
PF-478 (HLFILKSHLKPFPPFRYTYD; Peptide with targeting and/or antimicrobial activity),G B,MRSA (H),S. epidermidis (C),S. pneumoniae (C),E. coli (C),
PF-526 (VLLLFIFQPFQKQLL-NH2),G B,MRSA (C),S. epidermidis (C),S. pneumoniae (R),E. coli (R),"Organism, effect (morphology, biofilm and growth disruption) ([2]; C. albicans): C. albicans (C)"
PF-603 (IDKLKKMNLQKLSYEVRISQDGKSIYARIK; Peptide with targeting and/or antimicrobial activity),G B,MRSA (M),S. epidermidis (D),S. pneumoniae (C),E. coli (M),"Organism, effect (morphology, biofilm and growth disruption) ([2]; M. luteus): M. luteus (A)"
PF-440 (MFIISPDLFNIAVILYILFFIHDILLLILS; Peptide with targeting and/or antimicrobial activity),G B,MRSA (C),S. epidermidis (C),S. pneumoniae (R),E. coli (R),"Organism, effect (morphology, biofilm and growth disruption) ([2]; E. faecalis): E. faecalis (C)"
PF-458 (ISLIIFIMLFVVALFKCITNYKHQS; Peptide with targeting and/or antimicrobial activity),G B,MRSA (M),,S. pneumoniae (M),,"Organism, effect (morphology, biofilm and growth disruption) ([2]; P. aeruginosa): P. aeruginosa (H)"
PF-471 (MVGKIRGVTPRNDLLNANITGQLNLNYRLI; Peptide with targeting and/or antimicrobial activity),G B,MRSA (D),S. epidermidis (C),S. pneumoniae (D),E. coli (C),"Organism, effect (morphology, biofilm and growth disruption) ([2]; C. jejuni): C. jejuni (D); Organism, effect (morphology, biofilm and growth disruption) ([2]; E. faecalis): E. faecalis (C); Organism, effect (morphology, biofilm and growth disruption) ([2]; P. aeruginosa): P. aeruginosa (A)"
AL C SVIKAIEL GIINVHL Q [PF-366],G B,,,,,"Organism, effect ([2]; C. jejuni): C. jejuni (D); Organism, effect ([2]; E. coli): E. coli (C); Organism, effect ([2]; E. faecalis): E. faecalis (C); Organism, effect ([2]; MRSA): MRSA (D); Organism, effect ([2]; P. aeruginosa): P. aeruginosa (A); Organism, effect ([2]; S. epidermidis): S. epidermidis (R); Organism, effect ([2]; S. pneumoniae): S. pneumoniae (C)"
PF-439 (RVLVLKKFHGIMDGNRNVAVFFVGQ; Peptide with targeting and/or antimicrobial activity),G B,MRSA (M),S. epidermidis (C),S. pneumoniae (R),E. coli (R),"Organism, effect (morphology, biofilm and growth disruption) ([2]; E. faecalis): E. faecalis (C)"
